Data published in PubChem BioAssay AID330 (DTP/NCI, 2004).
“And” between values parts separate entries of the source, which are not always exact repeats. Equal entries are not always repeated. Inconclusive results and toxic doses are left out. How the source made its calls: active means survival T/C of 150% or more; inactive means T/C below 125% in these data. Square brackets hold non-standard residues; d marks the D form. Peptide text beside a SMILES is read from it. ξ: configuration not given here. ξL = CC(C)CC(N)C(=O)O

System: P388 leukemia ip, CD2F1 mice, survival T/C
Assay: NCI In Vivo Anticancer Drug Screen. Data for tumor model P388 Leukemia (intraperitoneal) in CD2F1 (CDF1) mice
Details: endpoint: median survival time, higher = longer survival
Outline: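 Mice carrying the transplanted tumor received test compound or vehicle. Survival was recorded in each group, and the value is the treated-group measurement divided by that of the vehicle-treated control group.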

[1] = dose: 50.0 mg/kg/injection, schedule: Q01DX005 (ip), vehicle: Klucel (hydroxypropylcellulose) (HPC)
[2] = dose: 100.0 mg/kg/injection, schedule: Q01DX005 (ip), vehicle: Klucel (hydroxypropylcellulose) (HPC)
[3] = dose: 200.0 mg/kg/injection, schedule: Q01DX005 (ip), vehicle: Klucel (hydroxypropylcellulose) (HPC)
[4] = dose: 50.0 mg/kg/injection, schedule: Q01DX009 (ip), vehicle: saline with Tween-80
[5] = dose: 200.0 mg/kg/injection, schedule: Q01DX009 (ip), vehicle: saline with Tween-80
[6] = dose: 12.5 mg/kg/injection, schedule: Q01DX009 (ip), vehicle: saline with Tween-80
[7] = dose: 25.0 mg/kg/injection, schedule: Q01DX009 (ip), vehicle: saline with Tween-80

Measured: T/C

CC(C)CC(NC(=O)CN)C(=O)NCC(=O)NCC(=O)O (stereo not given) (H-G[ξL]GG-OH)
inactive: [1] 100 % of control | [2] 102 % of control | [3] 95 % of control

CN(Cc1cnc2nc(N)nc(N)c2n1)c1ccc(C(=O)NC(CCC(=O)O)C(=O)O)cc1Br (stereo not given)
active: dose: 0.62 mg/kg/injection, schedule: Q01DX009 (ip), vehicle: saline sonified 209 % of control | dose: 1.25 mg/kg/injection, schedule: Q01DX009 (ip), vehicle: saline sonified 236 % of control | dose: 2.5 mg/kg/injection, schedule: Q01DX009 (ip), vehicle: saline sonified 245 % of control | dose: 5.0 mg/kg/injection, schedule: Q04DX003 (ip), vehicle: saline with Tween-80 200 % of control | dose: 6.6 mg/kg/injection, schedule: Q04DX003 (ip), vehicle: saline with Tween-80 166 % of control | dose: 10.0 mg/kg/injection, schedule: Q04DX003 (ip), vehicle: saline with Tween-80 166 % of control and 200 % of control

NC(=O)NN(Cc1cccc(Cl)c1)N=O
inactive: dose: 100.0 mg/kg/injection, schedule: Q04DX003 (ip), vehicle: Klucel (hydroxypropylcellulose) (HPC) 95 % of control | dose: 200.0 mg/kg/injection, schedule: Q04DX003 (ip), vehicle: Klucel (hydroxypropylcellulose) (HPC) 94 % of control | dose: 400.0 mg/kg/injection, schedule: Q04DX003 (ip), vehicle: Klucel (hydroxypropylcellulose) (HPC) 98 % of control

COc1cc(C=NCc2ccccc2)cc(OC)c1O
inactive: dose: 50.0 mg/kg/injection, schedule: Q04DX003 (ip), vehicle: saline with Tween-80 103 % of control | dose: 200.0 mg/kg/injection, schedule: Q04DX003 (ip), vehicle: saline with Tween-80 97 % of control | dose: 400.0 mg/kg/injection, schedule: Q04DX003 (ip), vehicle: saline with Tween-80 97 % of control

O=C(Nc1ccccc1-c1ccccc1)C(=O)Nc1ccccc1-c1ccccc1
inactive: dose: 50.0 mg/kg/injection, schedule: Q01DX005 (ip), vehicle: saline with Tween-80 90 % of control | dose: 100.0 mg/kg/injection, schedule: Q01DX005 (ip), vehicle: saline with Tween-80 89 % of control

N#C/C=C1\NC(=O)CS1
inactive: [4] 95 % of control | dose: 100.0 mg/kg/injection, schedule: Q01DX009 (ip), vehicle: saline with Tween-80 100 % of control | [5] 95 % of control

COC(=O)c1cn[nH]c1CC#N
inactive: dose: 100.0 mg/kg/injection, schedule: Q04DX002 (ip), vehicle: saline with Tween-80 92 % of control | dose: 200.0 mg/kg/injection, schedule: Q04DX002 (ip), vehicle: saline with Tween-80 100 % of control

Cc1c(-c2ccccc2)nc(N(C)C)oc1=O
inactive: dose: 60.0 mg/kg/injection, schedule: Q01DX005 (ip), vehicle: saline with Tween-80 105 % of control | dose: 120.0 mg/kg/injection, schedule: Q01DX005 (ip), vehicle: saline with Tween-80 101 % of control | dose: 240.0 mg/kg/injection, schedule: Q01DX005 (ip), vehicle: saline with Tween-80 100 % of control

CC(C)Nc1nc(NCC2CC2)nc(ON2C(=O)CCC2=O)n1
inactive: [6] 100 % of control | [7] 99 % of control | [4] 100 % of control and 86 % of control | [5] 104 % of control

CCC(=O)N=c1sc(SCc2ccccc2)nn1C(=O)SC (tested in a mixture with another compound)
inactive: dose: 60.0 mg/kg/injection, schedule: Q01DX005 (ip), vehicle: Klucel (hydroxypropylcellulose) (HPC) 95 % of control | dose: 120.0 mg/kg/injection, schedule: Q01DX005 (ip), vehicle: Klucel (hydroxypropylcellulose) (HPC) 98 % of control | dose: 240.0 mg/kg/injection, schedule: Q01DX005 (ip), vehicle: Klucel (hydroxypropylcellulose) (HPC) 90 % of control

CCCc1cccc2c3c([nH]c12)C(CC)(CC(=O)O)CCC3 (stereo not given)
inactive: [6] 97 % of control | [7] 106 % of control | [4] 98 % of control and 97 % of control

[Ag].[Ag].[NH-]S(=O)(=O)c1ccc(N=Nc2cc(N=Nc3ccc(S([NH-])(=O)=O)cc3)c3c(NC(=O)C(Cl)Cl)cccc3c2OC(=O)C(Cl)Cl)cc1.[c-]1nccs1.[c-]1nccs1
inactive: [6] 91 % of control | [7] 100 % of control | [4] 88 % of control and 93 % of control

C[C@]12CC[C@H]3[C@@H](CC[C@]4(O)C[C@@H](O)CC[C@]34CO)[C@@]1(O)CC[C@@H]2C1=CC(=O)OC1
inactive: dose: 25.0 mg/kg/injection, schedule: Q04DX003 (ip), vehicle: suspension in saline 97 % of control | dose: 50.0 mg/kg/injection, schedule: Q04DX003 (ip), vehicle: suspension in saline 98 % of control | dose: 100.0 mg/kg/injection, schedule: Q04DX003 (ip), vehicle: suspension in saline 97 % of control | dose: 200.0 mg/kg/injection, schedule: Q04DX003 (ip), vehicle: suspension in saline 100 % of control

CC(C)c1ccc(Nc2n[nH]c(=S)s2)cc1
inactive: [1] 105 % of control | [2] 100 % of control | [3] 99 % of control
